Drawing on PubChem BioAssay (NCI), this text covers TGI for nine compounds.

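Compound exposure: 48 hours, 5 concentrations, 96-well plates. TGI is the concentration that stops growth completely.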

Test systems include EKVX NSCLC; IGROV1 ovarian; OVCAR-5 ovarian; HCT-116 colon; RPMI-8226 leukemia; KM12 colon; T-47D breast; MALME-3M melanoma; A498 renal; M14 melanoma; ACHN renal; MDA-MB-435; SF-539 CNS; LOX IMVI melanoma.
Holding throughout (assay): growth of human tumour cells (NCI), 48 h

Consider `Cc1nnc2n1N=C(c1ccccc1)/C(=C/c1ccc(-c3ccc(Cl)cc3)o1)S2`, for which the TGI with EKVX NSCLC worked out at 53.3 µM; with IGROV1 ovarian, 36.6 µM; with OVCAR-5 ovarian, 39.9 µM; in the test with HCT-116 colon, 25.9 µM; in the test with RPMI-8226 leukemia, 26.8 µM; in the test with KM12 colon, 32.4 µM. Besides, the TGI in the test with T-47D breast amounted to 42.4 µM; in the test on MALME-3M melanoma, 33.6 µM; in the test on A498 renal, 31.4 µM; with M14 melanoma it was 36.6 µM; in the test with ACHN renal, 26.3 µM; in the test on MDA-MB-435 it was 22.3 µM.
Consider `O=C1OCN(c2ccccc2)C12CCN(Cc1ccccc1)CC2`, for which the TGI in the test with EKVX NSCLC is over 100 µM; in the test with IGROV1 ovarian, over 100 µM; with OVCAR-5 ovarian, over 100 µM; in the test on HCT-116 colon, over 100 µM; in the test on SF-539 CNS, 39.7 µM; with RPMI-8226 leukemia, 89 µM. The TGI with KM12 colon is 47.2 µM; in the test on T-47D breast, 63.8 µM; in the test with MALME-3M melanoma, 43.8 µM; in the test on LOX IMVI melanoma, 30.4 µM; in the test with M14 melanoma it was 33.1 µM; in the test on ACHN renal, over 100 µM. In the test with MDA-MB-435, this compound came in with a TGI of 31.2 µM.
For `CN(C)CCCN1c2ccc([N+](=O)[O-])cc2CCc2cccc([N+](=O)[O-])c21`, the TGI in the test with EKVX NSCLC was determined as 39.1 µM; in the test with IGROV1 ovarian, 29.7 µM; with OVCAR-5 ovarian, 33.3 µM; in the test with HCT-116 colon, 27.3 µM; in the test on SF-539 CNS, 31.5 µM; with RPMI-8226 leukemia, 98.7 µM. Also, the TGI worked out at 28.9 µM in the test with KM12 colon; 37.2 µM in the test with T-47D breast; 28 µM in the test on MALME-3M melanoma; 31.8 µM with LOX IMVI melanoma; 28 µM with M14 melanoma; 31.5 µM in the test on ACHN renal. The compound also registered a TGI with MDA-MB-435 of 27.7 µM.
Consider `CCN(CC)c1ccc2cc(C(N)=O)c(=N)oc2c1`, for which the TGI with IGROV1 ovarian is 80.7 µM; in the test on OVCAR-5 ovarian, over 100 µM; in the test on HCT-116 colon, over 100 µM; in the test on SF-539 CNS, over 100 µM; in the test on RPMI-8226 leukemia it was over 100 µM; in the test on KM12 colon, over 100 µM. The TGI with T-47D breast was 83.9 µM; in the test on A498 renal, over 100 µM; with LOX IMVI melanoma, over 100 µM; with M14 melanoma it was over 100 µM; in the test on ACHN renal, over 100 µM; in the test on MDA-MB-435, over 100 µM.
For the compound `O=C(NC(=S)Nc1ccc(Br)cc1)c1ccc2c(c1)Sc1ccccc1S2`, the TGI with IGROV1 ovarian came out at 30.2 µM; in the test on OVCAR-5 ovarian, 40.2 µM; with HCT-116 colon, 51 µM; with SF-539 CNS it was 53.5 µM; with KM12 colon it was 74.8 µM; in the test with T-47D breast, 33.4 µM. Further, the TGI was 48.5 µM with MALME-3M melanoma; 36.8 µM in the test with A498 renal; 61.4 µM in the test with LOX IMVI melanoma; 42.9 µM with M14 melanoma; 34.2 µM in the test with ACHN renal; over 100 µM in the test on MDA-MB-435.
For the compound `c1ccc(C(C2=Nc3cccc4cccc(c34)N2)c2ccccc2)cc1`, the TGI in the test with EKVX NSCLC was 80.7 µM; in the test with IGROV1 ovarian, over 100 µM; in the test on SF-539 CNS, 34.2 µM; with RPMI-8226 leukemia, over 100 µM; in the test with KM12 colon it was 49.6 µM; in the test with T-47D breast, 37 µM. Besides, the TGI in the test with MALME-3M melanoma was 73.3 µM; in the test on LOX IMVI melanoma it was 37.3 µM; in the test with M14 melanoma it was 65 µM; with ACHN renal it was 50.2 µM; in the test with MDA-MB-435, 66.1 µM.
Turning to `C1=CC2(C=CC13O[C@H](C1CCCCC1)[C@@H](C1CCCCC1)O3)O[C@H](C1CCCCC1)[C@@H](C1CCCCC1)O2`, the TGI in the test with IGROV1 ovarian, in the test on OVCAR-5 ovarian, in the test on HCT-116 colon, in the test with SF-539 CNS, with RPMI-8226 leukemia and with KM12 colon was over 50 µM each time. In addition, the TGI with T-47D breast, with MALME-3M melanoma, in the test with A498 renal, in the test on LOX IMVI melanoma, in the test on M14 melanoma and in the test with ACHN renal was over 50 µM throughout. The TGI in the test with MDA-MB-435 is over 50 µM.
On to `COc1ccc2c(c1)CC[C@@H]1[C@@H]2CC[C@]2(C)C(=O)/C(=C/c3ccc(N(C)C)cc3)C[C@@H]12`, for which the TGI with EKVX NSCLC, in the test with OVCAR-5 ovarian, in the test with HCT-116 colon, in the test with SF-539 CNS, in the test with RPMI-8226 leukemia and in the test with KM12 colon was over 100 µM in each case. Moreover, the TGI with T-47D breast, with MALME-3M melanoma, with A498 renal, in the test on M14 melanoma, in the test with ACHN renal and in the test with MDA-MB-435 was over 100 µM in each case.
`O=C1NC(N/N=C/c2ccccc2)=N/C1=C\c1ccco1`: the TGI was over 100 µM in the test on EKVX NSCLC; 57.4 µM with IGROV1 ovarian; over 100 µM with OVCAR-5 ovarian; over 100 µM with HCT-116 colon; over 100 µM in the test with RPMI-8226 leukemia; over 100 µM in the test with KM12 colon. In addition, the TGI in the test with T-47D breast was over 100 µM; with MALME-3M melanoma it was over 100 µM; in the test on A498 renal it was over 100 µM; with M14 melanoma, over 100 µM; in the test on ACHN renal, 55.4 µM; in the test with MDA-MB-435 it was over 100 µM.
